# Laboratory results as given in ChEMBL document CHEMBL1201862, “PubChem BioAssay data set” (2004).
#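 Interpolation was linear, between the two tested concentrations surrounding the appropriate level; five concentrations were tested over 48 hours in 96-well plates. GI50 marks 50% less growth.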 Active and inactive are the calls of the source. No stated cut-off is given here; in the data, active = GI50 up to about 1.1 µM and inactive = higher.
# What was measured:
# Experiment in all cases: DTP human tumour cell line panel, 48 h
# HOP-92 = tested on: HOP-92
# HL-60 = tested on: HL-60
# MDA-MB-231 = tested on: MDA-MB-231
# HOP-62 = tested on: HOP-62
# Malme-3M = tested on: Malme-3M
# HCC 2998 = tested on: HCC 2998
# RPMI-8226 = tested on: RPMI-8226
# OVCAR-4 = tested on: OVCAR-4
# CAKI-1 = tested on: CAKI-1
# IGROV-1 = tested on: IGROV-1
# ACHN = tested on: ACHN
# NCI-H522 = tested on: NCI-H522
# SR = tested on: SR
# UACC-62 = tested on: UACC-62
# PC-3 = tested on: PC-3
# UACC-257 = tested on: UACC-257
# SW-620 = tested on: SW-620
Compound,GI50 (HOP-92),GI50 (HL-60),GI50 (MDA-MB-231),GI50 (HOP-62),GI50 (Malme-3M),GI50 (HCC 2998),GI50 (RPMI-8226),GI50 (OVCAR-4),GI50 (CAKI-1),GI50 (IGROV-1),GI50 (ACHN),GI50 (NCI-H522),GI50 (SR),GI50 (UACC-62),GI50 (PC-3),GI50 (UACC-257),GI50 (SW-620)
CCN(CC)C(=O)CCN1CC1,> 10 µM (inactive),> 10 µM (inactive),> 10 µM (inactive),> 10 µM (inactive),> 10 µM (inactive),> 10 µM (inactive),> 10 µM (inactive),> 10 µM (inactive),> 10 µM (inactive),> 10 µM (inactive),> 10 µM (inactive),> 10 µM (inactive),> 10 µM (inactive),> 10 µM (inactive),> 10 µM (inactive),> 10 µM (inactive),–
O=S(=O)(Cc1nc2ccccc2s1)c1nc2ccccc2s1,12.9 µM (inactive),8.11 µM (inactive),17.1 µM (inactive),49.3 µM (inactive),11.3 µM (inactive),16.4 µM (inactive),16 µM (inactive),16.9 µM (inactive),–,18.7 µM (inactive),16.3 µM (inactive),15.5 µM (inactive),4.72 µM (inactive),16 µM (inactive),17 µM (inactive),15.8 µM (inactive),17.2 µM (inactive)
O=C(NC1C(=O)NC(CCc2ccccc2)NC1=O)OCc1ccccc1 (stereo unspecified),> 100 µM (inactive),> 100 µM (inactive),> 100 µM (inactive),> 100 µM (inactive),> 100 µM (inactive),–,> 100 µM (inactive),> 100 µM (inactive),> 100 µM (inactive),> 100 µM (inactive),> 100 µM (inactive),> 100 µM (inactive),> 100 µM (inactive),> 100 µM (inactive),> 100 µM (inactive),> 100 µM (inactive),> 100 µM (inactive)
CC1CC(C)(O)CC(C(O)CC2CC(=O)NC(=O)C2)C1=O (stereo unspecified) [RESACTIN A],< 0.02 µM (active),0.0392 µM (active),< 0.01 µM (active),0.027 µM (active),0.0546 µM (active),0.0441 µM (active),0.0456 µM (active),0.0447 µM (active),< 0.01 µM (active),0.0292 µM (active),0.0224 µM (active),< 0.0135 µM (active),0.0251 µM (active),0.0413 µM (active),0.0465 µM (active),0.0541 µM (active),0.0294 µM (active)
CCCCC[C@H]1CCCCCCCCCC(=O)OC2C(O[C@@H]3OC(C)[C@H](OC(=O)[C@@H](C)CC)C(O[C@@H]4OC(C)[C@H](O)C(O)[C@@H]4O)[C@@H]3OC(=O)[C@H](C)CC)[C@H](OC3C(O)[C@@H](O)C(C)O[C@H]3O1)OC(CO)[C@H]2O (stereo partly specified),22.3 µM (inactive),19 µM (inactive),16.8 µM (inactive),18.2 µM (inactive),15.3 µM (inactive),17.2 µM (inactive),16.8 µM (inactive),19.2 µM (inactive),17.3 µM (inactive),17.1 µM (inactive),> 10 µM (inactive),17.7 µM (inactive),16.7 µM (inactive),16.9 µM (inactive),16.2 µM (inactive),15.8 µM (inactive),16.5 µM (inactive)
O=C1CC(Sc2nc3ccc(I)cc3c(=O)n2Cc2ccccc2)C(=O)NN1 (stereo unspecified),17.7 µM (inactive),20 µM (inactive),15.6 µM (inactive),17.4 µM (inactive),18.1 µM (inactive),17.6 µM (inactive),17 µM (inactive),17.4 µM (inactive),2.81 µM (inactive),11.8 µM (inactive),16.6 µM (inactive),1.94 µM (inactive),2.73 µM (inactive),15.3 µM (inactive),17 µM (inactive),18.3 µM (inactive),18 µM (inactive)
O=C1OC[C@@H]2Cc3c([nH]c4ccccc34)[C@@H](c3cc(O)c(O)c(O)c3)N12,> 100 µM (inactive),2.72 µM (inactive),20.7 µM (inactive),21.4 µM (inactive),4.37 µM (inactive),48.1 µM (inactive),27.5 µM (inactive),12.9 µM (inactive),8.67 µM (inactive),25 µM (inactive),31.2 µM (inactive),5.09 µM (inactive),13.9 µM (inactive),8.93 µM (inactive),31.3 µM (inactive),2.99 µM (inactive),21.3 µM (inactive)
COCC1OC(OC2C3=C(C(C)C)CCC3(C)/C=C3\C(CCC3(O)COC)C(C)C2O)C(O)C2OC3OC12OC3(C)C1CO1 (stereo unspecified),17.2 µM (inactive),16.3 µM (inactive),50.9 µM (inactive),89.5 µM (inactive),34.7 µM (inactive),42.2 µM (inactive),27.2 µM (inactive),25.5 µM (inactive),21.8 µM (inactive),37.8 µM (inactive),47.2 µM (inactive),22.9 µM (inactive),41.8 µM (inactive),21.9 µM (inactive),35 µM (inactive),40.3 µM (inactive),34.4 µM (inactive)
COc1c(C(=O)/C(=N/Nc2cccc(Cl)c2)C(C)=O)c(O)c(OC)c2occc12,67.1 µM (inactive),> 100 µM (inactive),73.6 µM (inactive),> 100 µM (inactive),60.1 µM (inactive),31.5 µM (inactive),80.9 µM (inactive),–,> 100 µM (inactive),> 100 µM (inactive),70 µM (inactive),> 100 µM (inactive),> 100 µM (inactive),> 100 µM (inactive),53.5 µM (inactive),> 100 µM (inactive),76.4 µM (inactive)
CCOC(=O)/C=C/c1nc(C#N)c(N)o1,> 100 µM (inactive),> 100 µM (inactive),> 100 µM (inactive),> 100 µM (inactive),–,–,> 100 µM (inactive),–,> 100 µM (inactive),> 100 µM (inactive),> 100 µM (inactive),–,> 100 µM (inactive),> 100 µM (inactive),> 100 µM (inactive),> 100 µM (inactive),> 100 µM (inactive)
Cc1ccc(S(=O)(=O)N2CCCN(S(=O)(=O)c3ccc(C)cc3)CC2)cc1,> 100 µM (inactive),–,> 100 µM (inactive),–,–,> 100 µM (inactive),–,> 100 µM (inactive),–,–,> 100 µM (inactive),> 100 µM (inactive),> 100 µM (inactive),–,> 100 µM (inactive),> 100 µM (inactive),> 100 µM (inactive)
CC(=O)OC(C)(C)CCC(=O)[C@](C)(O)[C@H]1[C@H](O)C[C@@]2(C)[C@@H]3CC=C4C(C)=C(OC5OC(CO)C(O)C(O)C5O)C(=O)C[C@@H]4[C@]3(C)C(=O)C[C@]12C (stereo partly specified),> 100 µM (inactive),–,> 100 µM (inactive),> 100 µM (inactive),> 100 µM (inactive),> 100 µM (inactive),–,> 100 µM (inactive),> 100 µM (inactive),> 100 µM (inactive),> 100 µM (inactive),> 100 µM (inactive),> 100 µM (inactive),> 100 µM (inactive),> 100 µM (inactive),> 100 µM (inactive),> 100 µM (inactive)
O=C1CCC(NC(=O)c2ccccc2)C(=O)N1 (stereo unspecified),> 100 µM (inactive),–,> 100 µM (inactive),> 100 µM (inactive),> 100 µM (inactive),> 100 µM (inactive),> 100 µM (inactive),> 100 µM (inactive),> 100 µM (inactive),> 100 µM (inactive),> 100 µM (inactive),> 100 µM (inactive),> 100 µM (inactive),> 100 µM (inactive),> 100 µM (inactive),> 100 µM (inactive),> 100 µM (inactive)
COc1ccc(C2C=C(c3ccc(C)cc3)N(c3ccc(OC)cc3[N+](=O)[O-])C3C(=O)OC(=O)C23)c(OC)c1 (stereo unspecified),–,31.8 µM (inactive),53.2 µM (inactive),96.6 µM (inactive),11.1 µM (inactive),29.9 µM (inactive),22 µM (inactive),62.5 µM (inactive),37.3 µM (inactive),15.2 µM (inactive),16 µM (inactive),10.4 µM (inactive),20.1 µM (inactive),49.4 µM (inactive),42.4 µM (inactive),77.6 µM (inactive),28.6 µM (inactive)
Cn1c2ccc(C3=NCCN3)cc2c2cc(C3=NCCN3)ccc21,13.4 µM (inactive),< 0.01 µM (active),41.2 µM (inactive),15.3 µM (inactive),18.2 µM (inactive),–,24.6 µM (inactive),13.6 µM (inactive),> 100 µM (inactive),24.5 µM (inactive),37.9 µM (inactive),0.0775 µM (active),18.2 µM (inactive),–,34.3 µM (inactive),43.8 µM (inactive),17.6 µM (inactive)
COc1cc(/C=C(\C#N)c2nc3ccccc3o2)ccc1O,14.1 µM (inactive),19.6 µM (inactive),21.8 µM (inactive),21 µM (inactive),19.8 µM (inactive),20.9 µM (inactive),21 µM (inactive),11.2 µM (inactive),17.3 µM (inactive),17.2 µM (inactive),19 µM (inactive),13.3 µM (inactive),24.2 µM (inactive),18.6 µM (inactive),21.2 µM (inactive),23.5 µM (inactive),–
Cc1cc(C)n(C(=O)C(C)Sc2nnc(SC(C)C(=O)n3nc(C)cc3C)s2)n1 (stereo unspecified),> 100 µM (inactive),> 100 µM (inactive),> 100 µM (inactive),> 100 µM (inactive),> 100 µM (inactive),> 100 µM (inactive),> 100 µM (inactive),> 100 µM (inactive),> 100 µM (inactive),> 100 µM (inactive),> 100 µM (inactive),–,> 100 µM (inactive),> 100 µM (inactive),> 100 µM (inactive),> 100 µM (inactive),> 100 µM (inactive)
